*1 amine or outer side, *2 acyl side, *3 side chain or, on linkers, in order; H or OH if unused. Where a SMILES comes first, the peptide text is derived from it. Bridges are numbered along the chain shown (N, C = ends). [ ]: non-standard residue; d: D form. The star is where a group is joined. hPhe(3-Cl-4-CF3) = N[C@@H](CCc1ccc(C(F)(F)F)c(Cl)c1)C(=O)O; X42 = COCCCN([C@@H](Cc1ccc(C(F)(F)F)cc1)C(=O)[*:2])[*:1]; NMeGly(cPent) = CN[C@H](C(=O)O)C1CCCC1; NMeD = CN[C@@H](CC(=O)O)C(=O)O; NMeL = CN[C@@H](CC(C)C)C(=O)O; Morpholide = C1CN(*)CCO1; NMeA = CN[C@@H](C)C(=O)O; Ac5c = NC1(C(=O)O)CCCC1; Aze = O=C(O)[C@@H]1CCN1; Sar = CNCC(=O)O
Tests used:
[1] = molecular target: GDP-bound NRAS wild-type protein (Homo sapiens, UniProt P01111); experiment: Binding to NRAS by surface plasmon resonance (SPR), Single Cycle Kinetics; settings: SPR; for NRAS/KRAS (ratio of KD value for NRAS to KD value for KRAS) / NRAS/KRAS (ratio of KD value with respect to NRAS to KD value with respect to KRAS): GDP-bound NRAS wild-type vs GDP-bound KRAS wild-type
[2] = molecular target: GDP-bound HRAS wild-type protein (Homo sapiens, UniProt P01112); experiment: Binding to HRAS by surface plasmon resonance (SPR), Single Cycle Kinetics; settings: SPR; for HRAS/KRAS (ratio of KD value for HRAS to KD value for KRAS) / HRAS/KRAS (ratio of KD value with respect to HRAS to KD value with respect to KRAS): GDP-bound HRAS wild-type vs GDP-bound KRAS wild-type
Sequence of GDP-bound HRAS wild-type protein (P01112 whole entry): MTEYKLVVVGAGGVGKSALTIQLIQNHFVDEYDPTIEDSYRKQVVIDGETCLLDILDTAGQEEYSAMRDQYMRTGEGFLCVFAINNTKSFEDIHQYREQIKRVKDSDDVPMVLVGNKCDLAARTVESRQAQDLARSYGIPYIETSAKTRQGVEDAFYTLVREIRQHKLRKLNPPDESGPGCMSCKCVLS

Sequence of GDP-bound NRAS wild-type protein (P01111 whole entry): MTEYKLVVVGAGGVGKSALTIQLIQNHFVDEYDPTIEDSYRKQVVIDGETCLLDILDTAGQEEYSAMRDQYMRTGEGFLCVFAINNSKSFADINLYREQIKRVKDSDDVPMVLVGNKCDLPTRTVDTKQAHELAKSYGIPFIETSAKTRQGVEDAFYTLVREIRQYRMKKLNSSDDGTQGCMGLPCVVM

CCCOC[C@H]1C(=O)N[C@@H]([C@@H](C)CC)C(=O)N(C)CC(=O)N(C)[C@H]2C/C=C\CCN(C2=O)[C@@H](Cc2ccc(C(F)(F)F)cc2)C(=O)N(C)CC(=O)N[C@@H](CCc2ccc(C(F)(F)F)c(OC)c2)C(=O)N2C[C@@H](C)C[C@H]2C(=O)NC2(CCC2)C(=O)N(C)[C@@H](C2CCCC2)C(=O)N(C)[C@H](C(=O)N(C)CCC)CC(=O)N1C [PP2028]
NRAS/KRAS (ratio of KD value for NRAS to KD value for KRAS) ([1]; KD ratio): A (a compound having 10 or more and less than 20 is denoted as A)
HRAS/KRAS (ratio of KD value for HRAS to KD value for KRAS) ([2]; KD ratio): B (a compound having 3 or more and less than 10 is denoted as B)

CCO[C@@H]1C[C@H]2C(=O)NC3(CCCC3)C(=O)N(C)[C@@H](C3CCCC3)C(=O)N(C)[C@H](C(=O)N(C)C)CC(=O)N(C)[C@@H](CC(C)C)C(=O)N[C@@H]([C@@H](C)CC)C(=O)N(C)CC(=O)N(C)[C@H]3CC(C)=CCN(C3=O)[C@@H](Cc3ccc(C(F)(F)F)cc3)C(=O)N(C)CC(=O)N[C@@H](CCc3cc(F)c(C(F)(F)F)c(F)c3)C(=O)N2C1 [PP1031]
NRAS/KRAS (ratio of KD value with respect to NRAS to KD value with respect to KRAS) ([1]; KD ratio): C (A compound having a KD ratio of 0.1 or more and less than 3 is denoted as C)
HRAS/KRAS (ratio of KD value with respect to HRAS to KD value with respect to KRAS) ([2]; KD ratio): C (A compound having a KD ratio of 0.1 or more and less than 3 is denoted as C)

CCO[C@@H]1C[C@H]2C(=O)NC3(CCC3)C(=O)N(C)[C@@H](C3CCCC3)C(=O)N(C)[C@H](C(=O)N(C)CC)CC(=O)N(C)[C@@H](C)C(=O)N[C@@H]([C@@H](C)CC)C(=O)N(C)CC(=O)N(C)[C@H]3C/C=C\CCN(C3=O)[C@@H](Cc3ccc(C(F)(F)F)cc3)C(=O)N(C)CC(=O)N[C@@H](CCc3cc(F)c(C(F)(F)F)c(F)c3)C(=O)N2C1 [PP1302]
NRAS/KRAS (ratio of KD value for GDP-bound NRAS wild-type protein to KD value for KRAS) ([1]; KD ratio class): A (a compound having 10 or more and less than 20 is denoted as A)
HRAS/KRAS (ratio of KD value for GDP-bound HRAS wild-type protein to KD value for KRAS) ([2]; KD ratio class): A (a compound having 10 or more and less than 20 is denoted as A)

CC[C@H](C)[C@@H]1NC(=O)[C@H](CC2CCC2)N(C)C(=O)C[C@@H](C(=O)N(C)C)N(C)C(=O)[C@H](C2CCCC2)N(C)C(=O)C2(CCC2)N(C)C(=O)[C@@H]2C[C@@H](C)CN2C(=O)[C@H](CCc2cc(F)c(C(F)(F)F)c(F)c2)NC(=O)CN(C)C(=O)[C@H](Cc2ccc(C)cc2)N2CC/C=C\C[C@@H](C2=O)N(C)C(=O)CN(C)C1=O [PP1803]
NRAS/KRAS (ratio of KD value for NRAS to KD value for KRAS) ([1]; KD ratio): A (a compound having 10 or more and less than 20 is denoted as A)
HRAS/KRAS (ratio of KD value for HRAS to KD value for KRAS) ([2]; KD ratio): B (a compound having 3 or more and less than 10 is denoted as B)

CC[C@H](C)[C@@H]1NC(=O)[C@H](CC(C)C)N(C)C(=O)C[C@@H](C(=O)N2CCOCC2)N(C)C(=O)[C@H](C2CCCC2)N(C)C(=O)C2(CCCC2)NC(=O)[C@@H]2CCCN2C(=O)[C@H](CCc2ccc(C(F)(F)F)c(Cl)c2)NC(=O)CN(C)C(=O)[C@H](Cc2ccc(C(F)(F)F)cc2)N(CCCOC)C(=O)[C@@H]2CCN2C(=O)[C@H](C)N(C)C1=O [PP0119] ([NMeL]I[NMeA][Aze][X42][Sar][hPhe(3-Cl-4-CF3)]P[Ac5c][NMeGly(cPent)][NMeD]-Morpholide; lactam N-11)
NRAS/KRAS (ratio of KD for GDP-bound NRAS wild-type to KD for KRAS) ([1]; KD ratio NRAS/KRAS): C (A compound having a KD ratio of 0.1 or more and less than 3 is denoted as C)
HRAS/KRAS (ratio of KD for GDP-bound HRAS wild-type to KD for KRAS) ([2]; KD ratio HRAS/KRAS): C (A compound having a KD ratio of 0.1 or more and less than 3 is denoted as C)

CCC[C@H]1C(=O)N[C@@H]([C@@H](C)CC)C(=O)N(C)CC(=O)N(C)[C@H]2C/C=C\CCN(C2=O)[C@@H](CC2CCC(F)(F)CC2)C(=O)N(C)CC(=O)N[C@@H](CCc2ccc(C(F)(F)F)c(OC)c2)C(=O)N2C[C@H](OCC)C[C@H]2C(=O)N(C)C2(CCC2)C(=O)N(C)[C@@H](C(CC)CC)C(=O)N(C)[C@H](C(=O)N(C)C)CC(=O)N1C [PP2345]
NRAS/KRAS (ratio of KD value with respect to NRAS to KD value with respect to KRAS) [1]: A (a compound having 10 or more and less than 20 is denoted as A)
HRAS/KRAS (ratio of KD value with respect to HRAS to KD value with respect to KRAS) [2]: A (a compound having 10 or more and less than 20 is denoted as A)

CCCO[C@@H]1C[C@H]2C(=O)NC3(CC(C)(C)C3)C(=O)N(C)[C@@H](C(CC)CC)C(=O)N(C)[C@H](C(=O)N(C)C)CC(=O)N(C)[C@H]3CCCCc4ccc(cc4)C[C@@H](C(=O)N(C)CC(=O)N[C@@H](CCc4ccc(C(F)(F)F)c(OC)c4)C(=O)N2C1)N1CC/C=C\C[C@@H](C1=O)N(C)C(=O)CN(C)C(=O)[C@H]([C@@H](C)CC)NC3=O [PP3038]
NRAS/KRAS (ratio of KD value with respect to GDP-bound NRAS wild-type protein to KD value with respect to KRAS) ([1]; KD ratio NRAS/KRAS, GDP-bound wild-type proteins): A (a compound having 10 or more and less than 20 is denoted as A)
HRAS/KRAS (ratio of KD value with respect to GDP-bound HRAS wild-type protein to KD value with respect to KRAS) ([2]; KD ratio HRAS/KRAS, GDP-bound wild-type proteins): A (a compound having 10 or more and less than 20 is denoted as A)
